Measurements reported in patent US10428074B2, “Pyrrole heteroaryl ring derivative and method of use thereof” (Jiangsu Hengrui Medicine Co., Ltd., priority 2011, dated 2019).

test system: human erythroid leukemia cell line TF-1; test: Proliferation inhibition assay on TF-1 cells mediated by IL-4; format: cell-based; details: 10 ng/mL IL-4, 72 hours
Text: The following in vitro assay is to determine the activity of the compounds of the present invention for inhibiting the proliferation of human erythroid leukemia cell line TF-1.
The activity is represented by the IC50 value, which can not only reflect the activity of a test compound for inhibiting JAK2 and JAK3 kinase, but can also reflect the selectivity of a test compound for JAK2 and JAK3 kinase.
The general procedures of the assay are given as follows: first, the TF-1 cells (purchased from ATCC, Catalog number: CRL 2003) were seeded in a 96-well cell culture plate at a suitable cell concentration (8000 cells/mL medium), and 10 ng/mL IL-4 (Invitrogen, Catalog Number: PHC0044) were added to each well. Then 10× serial concentration gradient of test compounds solutions (10000, 1000, 100, 10, 1 and 0.1 nM) were prepared, and then the 10× compound solutions prepared above were added to the 96-well cell culture plate containing IL-4. After the cell plates were cultured continuously for 72 hours, the activity of the test compounds for inhibiting the cell proliferation was determined by using a Cell Counting Kit-8 (purchased from Dojindo, Catalog Number: CK04). IC50 values were calculated from the data of the inhibition rates at various concentrations of the test compounds.

Row | IC50 | Compound
1 | 0.196 µM | CN(c1ncnc2[nH]ccc12)[C@@H]1C[C@@H]2CN(C(=O)OC(C)(C)C)C[C@]2(C)C1 (racemic) [Example 1, (3aR,5R,6aS/3aS,5S,6aR)-tert-butyl-3a-methyl-5-(methyl(7H-pyrrolo[2,3-d]pyrimidin-4-yl)amino)hexahydro cyclopenta[c]pyrrole-2(1H)-carboxylate]
2 | 0.133 µM | CN(c1ncnc2[nH]ccc12)[C@H]1C[C@@H]2CN(C(=O)OC(C)(C)C)C[C@@H]2C1 [Example 5, (3aR,5S,6aS)-tert-Butyl 5-(methyl(7H-pyrrolo[2,3-d]pyrimidin-4-yl)amino)hexahydro cyclopenta[c]pyrrole-2(1H)-carboxylate]
3 | 0.53 µM | CN(c1ncnc2[nH]ccc12)[C@H]1C[C@@H]2CN(C(=O)CC#N)C[C@@H]2C1 [Example 8, 3-((3 aR,5S,6aS)-5-(Methyl(7H-pyrrolo[2,3-d]pyrimidin-4-yl)amino)hexahydrocyclopenta[c]pyrrol-2(1H)-yl)-3-oxopropanenitrile]
4 | 0.507 µM | CC(=O)N1C[C@H]2C[C@H](N(C)c3ncnc4[nH]ccc34)C[C@H]2C1 [Example 11, 1-((3aR,5S,6aS)-5-(Methyl(7H-pyrrolo[2,3-d]pyrimidin-4-yl)amino)hexahydrocyclopenta[c]pyrrol-2(1H)-yl)ethanone]
5 | 0.419 µM | CN(c1ncnc2[nH]ccc12)C1C[C@@H]2CCN(C(=O)CC#N)C[C@@H]2C1 (stereo partly drawn) [Example 39, 3-((4aS,7aR)-6-(Methyl(7H-pyrrolo[2,3-d]pyrimidin-4-yl)amino)hexahydro-1H-cyclopenta[c]pyridin-2(3H,4H,4aH,5H,6H,7H,7aH)-yl)-3-oxopropanenitrile]
6 | 0.507 µM | Cc1noc(N2C[C@H]3C[C@H](N(C)c4ncnc5[nH]ccc45)C[C@H]3C2)n1 [Example 61, N-methyl-N-((3aR,5S,6aS)-2-(3-methyl-1,2,4-oxadiazol-5-yl)octahydrocyclopenta[c]pyrrol-5-yl)-7H-pyrrolo[2,3-d] pyrimidin-4-amine]
7 | 0.014 µM | CN(c1ncnc2[nH]ccc12)[C@H]1C[C@@H]2CN(C(=O)Nc3nc(C4CC4)ns3)C[C@@H]2C1 [Example 125, (3aR,5S,6aS)-N-(3-cyclopropyl-1,2,4-thiadiazol-5-yl)-5-(methyl(7H-pyrrolo[2,3-d]pyrimidin-4-yl)amino) hexahydrocyclopenta [c]pyrrole-2(1H)-carboxamide]
8 | 0.539 µM | CN(c1ncnc2[nH]c(F)cc12)[C@H]1C[C@@H]2CN(C(=O)CO)C[C@@H]2C1 [Example 129, 1-((3aR,5S,6aS)-5-((6-fluoro-7H-pyrrolo[2,3-d]pyrimidin-4-yl)(methyl)amino)hexahydrocyclopenta[c]pyrrol-2(1H)-yl)-2-hydroxyethanone]

same assay, conditions: TF-1, 72 h, 10 ng/mL IL-4, 72 hours

Row | IC50 | Compound
9 | 0.457 µM | CN(c1ncnc2[nH]ccc12)[C@H]1C[C@@H]2CN(C(=O)CO)C[C@@H]2C1 [Example 6, 2-Hydroxy-1-((3aR,5S,6aS)-5-(methyl(7H-pyrrolo[2,3-d]pyrimidin-4-yl)amino)hexahydrocyclopenta[c]pyrrol-2(1H)-yl)ethanone]

test system: T cells; test: Proliferation inhibition assay on T cells (PBMC, anti-CD3, IL-2); format: cell-based, human; details: Homo sapiens, T-cell, 72 h, IL-2 10 ng/mL
Text: The following in vitro assay is to determine the activity of the compounds of the present invention for inhibiting the proliferation of T cells.
The activity is represented by the IC50 value.
The general procedures of the assay are given as follows: first, the PBMC cell line (purchased from Shanghai Blood Center) was centrifuged, the supernatant was removed, and the cells counted. […] Then, the cells were washed 3 times, resuspended, diluted to 2×10^6/mL, and then mixed with recombinant human IL-2 (purchased from Peprotech, Catalog Number: 200-02) to a concentration of 10 ng/mL, and cultured for another 3 days. The cells were washed again 3 times, and diluted to 5×10^5/mL. 80 μL of the cells were seeded in each well of a 96-well cell culture plate. […] To he control wells, 10 μL culture medium were added. The plate was placed in an incubator. After incubating for 1 hr, negative control wells were mixed with 10 μL of culture medium, and the rest of the wells were mixed with IL-2 to a concentration of 10 ng/mL, and incubated continuously for 72 hours. […] IC50 values were calculated from the data of inhibition rates at various concentrations of the test compounds.

Row | Compound | IC50
10 | CN(c1ncnc2[nH]ccc12)[C@H]1C[C@@H]2CN(C(=O)CO)C[C@@H]2C1 [Example 6, 2-Hydroxy-1-((3aR,5S,6aS)-5-(methyl(7H-pyrrolo[2,3-d]pyrimidin-4-yl)amino)hexahydrocyclopenta[c]pyrrol-2(1H)-yl)ethanone] | 0.414 µM
11 | CN(c1ncnc2[nH]ccc12)[C@H]1C[C@@H]2CN(S(=O)(=O)C3CC3)C[C@@H]2C1 [Example 15, N-((3aR,5S,6aS)-2-(Cyclopropylsulfonyl)octahydrocyclopenta[c]pyrrol-5-yl)-N-methyl-7H-pyrrolo[2,3-d]pyrimidin-4-amine] | 0.853 µM
12 | CN(c1ncnc2[nH]ccc12)[C@H]1C[C@@H]2CN(C(=O)CNS(C)(=O)=O)C[C@@H]2C1 [Example 21, N-(2-((3aR,5S,6aS)-5-(Methyl(7H-pyrrolo[2,3-d]pyrimidin-4-yl)amino)hexahydrocyclopenta[c]pyrrol-2(1H)-yl)-2-oxoethyl)methanesulfonamide] | 0.892 µM
13 | COC(=O)CN1C[C@H]2C[C@H](N(C)c3ncnc4[nH]ccc34)C[C@H]2C1 [Example 24, Methyl 2-((3aR,5S,6aS)-5-(methyl(7H-pyrrolo[2,3-d]pyrimidin-4-yl)amino)hexahydrocyclopenta[c]pyrrol-2(1H)-yl)acetate] | 0.851 µM
14 | CN(c1ncnc2[nH]ccc12)[C@H]1C[C@@H]2CN(CCC#N)C[C@@H]2C1 [Example 27, 3-((3 aR,5S,6aS)-5-(Methyl(7H-pyrrolo[2,3-d]pyrimidin-4-yl)amino)hexahydrocyclopenta[c]pyrrol-2(1H)-yl)propanenitrile] | 0.253 µM
15 | CN(c1ncnc2[nH]ccc12)[C@H]1C[C@H]2CNC(=O)C[C@H]2C1 [Example 40, (4aR,6R,7aR)-6-(Methyl(7H-pyrrolo[2,3-d]pyrimidin-4-yl)amino) hexahydro-1H-cyclopenta[c]pyridin-3(2H)-one] | 0.048 µM
16 | CN(c1ncnc2[nH]ccc12)[C@H]1C[C@@H]2CN(CC(F)(F)F)C[C@@H]2C1 [Example 56, N-methyl-N-((3aR,5S,6aS)-2-(2,2,2-trifluoroethyl)octahydrocyclopenta [c]pyrrol-5-yl)-7H-pyrrolo[2,3-d]pyrimidin-4-amine] | 0.119 µM
17 | CN(c1ncnc2[nH]ccc12)[C@@H]1C[C@@H]2CN(CCC#N)C[C@@H]2C1 [Example 68, 3-((3aR,5R,6aS)-5-(methyl(7H-pyrrolo[2,3-d]pyrimidin-4-yl)amino)hexahydrocyclopenta[c]pyrrol-2(1H)-yl)propanenitrile] | 0.824 µM
18 | CN(c1ncnc2[nH]ccc12)[C@@H]1CC2CNC(=O)CC2C1 (stereo partly drawn) [Example 148, (6S)-6-(methyl(7H-pyrrolo[2,3-d]pyrimidin-4-yl)amino) hexahydro-1H-cyclopenta[c] pyridin-3(2H)-one] | 0.048 µM

same assay, conditions: Homo sapiens, T-cell; IL-2 10 ng/mL, 72 hours

Row | Compound | IC50
19 | CN(c1ncnc2[nH]ccc12)[C@H]1C[C@@H]2CN(C(=O)CC#N)C[C@@H]2C1 [Example 8, 3-((3 aR,5S,6aS)-5-(Methyl(7H-pyrrolo[2,3-d]pyrimidin-4-yl)amino)hexahydrocyclopenta[c]pyrrol-2(1H)-yl)-3-oxopropanenitrile] | 0.46 µM
20 | CC(=O)N1C[C@H]2C[C@H](N(C)c3ncnc4[nH]ccc34)C[C@H]2C1 [Example 11, 1-((3aR,5S,6aS)-5-(Methyl(7H-pyrrolo[2,3-d]pyrimidin-4-yl)amino)hexahydrocyclopenta[c]pyrrol-2(1H)-yl)ethanone] | 0.705 µM
21 | CN(c1ncnc2[nH]ccc12)[C@H]1C[C@@H]2CN(C(=O)C3CC3)C[C@@H]2C1 [Example 13, Cyclopropyl((3aR,5S,6aS)-5-(methyl(7H-pyrrolo[2,3-d]pyrimidin-4-yl)amino)hexahydrocyclopenta[c]pyrrol-2(1H)-yl)methanone] | 0.754 µM
22 | CN(c1ncnc2[nH]ccc12)[C@H]1C[C@@H]2CN(C(=O)CCC#N)C[C@@H]2C1 [Example 22, 4-((3aR,5S,6aS)-5-(Methyl(7H-pyrrolo[2,3-d]pyrimidin-4-yl)amino)hexahydrocyclopenta[c]pyrrol-2(1H)-yl)-4-oxobutanenitrile] | 0.281 µM
23 | CN(c1ncnc2[nH]ccc12)[C@@H]1C[C@@H]2CN(C(=O)CO)C[C@@H]2C1 [Example 23, 2-Hydroxy-1-((3aR,5R,6aS)-5-(methyl(7H-pyrrolo[2,3-d]pyrimidin-4-yl)amino)hexahydrocyclopenta[c]pyrrol-2(1H)-yl)ethanone] | 0.543 µM
24 | CCC(=O)N1C[C@H]2C[C@H](N(C)c3ncnc4[nH]ccc34)C[C@H]2C1 [Example 84, 1-((3aR,5S,6aS)-5-(methyl(7H-pyrrolo[2,3-d]pyrimidin-4-yl)amino)hexahydrocyclopenta[c]pyrrol-2(1H)-yl)propan-1-one] | 0.509 µM
25 | COc1cncc(NC(=O)N2C[C@H]3C[C@H](N(C)c4ncnc5[nH]ccc45)C[C@H]3C2)c1 [Example 109, (3aR,5S,6aS)-N-(5-methoxypyridin-3-yl)-5-(methyl(7H-pyrrolo[2,3-d]pyrimidin-4-yl)amino)hexahydrocyclopenta[c] pyrrole-2(1H)-carboxamide] | 0.762 µM
26 | CCc1nsc(NC(=O)N2C[C@H]3C[C@H](N(C)c4ncnc5[nH]ccc45)C[C@H]3C2)n1 [Example 121, (3aR,5S,6aS)-N-(3-ethyl-1,2,4-thiadiazol-5-yl)-5-(methyl(7H-pyrrolo[2,3-d]pyrimidin-4-yl)amino)hexahydrocyclopenta[c] pyrrole-2(1H)-carboxamide] | 0.024 µM
27 | CN(c1ncnc2[nH]ccc12)[C@@H]1C[C@@H]2CCN(C(=O)Nc3nncs3)C[C@@H]2C1 [Example 150, (4aS,6R,7aR)-6-(methyl(7H-pyrrolo[2,3-d]pyrimidin-4-yl)amino)-N-(1,3,4-thiadiazol-2-yl)hexahydro-1H-cyclopenta[c]pyridine-2(3H)-carboxamide] | 0.221 µM

same assay, conditions: IL-2 10 ng/mL, 72 hours; read-out: IC50(T cell)

Row | Compound | IC50
28 | CN(c1ncnc2[nH]ccc12)[C@@H]1C[C@H]2CN(C(=O)CO)C[C@@]2(C)C1 (racemic) [Example 14, 2-Hydroxy-1-((3aS,5R,6aR/3aS,5R,6aR)-3a-methyl-5-(methyl(7H-pyrrolo[2,3-d]pyrimidin-4-yl)amino)hexahydrocyclopenta[c]pyrrol-2(1H)-yl)ethanone] | 0.712 µM
